Measured values as given in patent publication US5977077A, “Xanthone analogs for the treatment of infectious diseases” (Interlab Corporation, priority 1996, dated 1999).
Converted amounts (≈) assume the structure as drawn. Like-named read-outs stand apart in the source and are kept apart here.

What was measured:
[1] = tested on: Plasmodium falciparum (D6 strain); assay: In vitro anti-malarial activity, [3H]-ethanolamine incorporation; assay type: cell-based; details: for IC50: Plasmodium falciparum; for anti-malarial potency relative to 2,3,4,5,6-pentahydroxyxanthone: in words
Procedure: The D6 strain of P. falciparum was cultured in Group A^+ human erythrocytes and suspended at a 3.3% hematocrit in RPMI-1640 (Gibco, Grand Island, N.Y.) (containing 4 g/L glucose, 50 mg/L gentamicin and 10% group A^+ human serum), buffered with 25 mM HEPES and 25 mM NaHCO3 (Larrey, 1989). Cultures were maintained at 37° C. in a gas mixture of 5% oxygen, 5% CO2, and 90% nitrogen.
The in vitro anti-malarial activities of 2,3,4,5,6-pentahydroxyxanthone and other formula X1 compounds were measured by the [^3 H]-ethanolamine incorporation method as described in Elabbadi et al., 1992, with minor modifications. [^3 H]-ethanolamine was obtained from American Radiolabeled Chemicals, Inc., St. Louis, Mo. Experiments were conducted in 96 well plates in a total volume of 200 μl at a final red blood cell concentration of 3.3% (v/v). An initial parasitemia of 0.2 to 0.5% was attained by addition of normal uninfected red cells. Radiolabeled ethanolamine was added after 48 hours of incubation and the experiment was terminated after 72 hours by collecting the cells onto glass fiber filters with an automated multiwell harvester.
Stock solutions of the various formula X1 compounds were dissolved in DMSO at a concentration of 1 mM and diluted in complete medium (including 10% human serum) to provide 10× stock concentrations in the range of 1 to 10,000 nM. The concentration of the formula X1 compound giving 50% inhibition of label incorporation (IC50) relative to control (i.e., drug-free) conditions was calculated from the dose-response curve.

Leishmania donovani [2] = assay: In vitro anti-leishmania activity, radiolabeled thymidine uptake assay; assay type: cell-based; details: for IC50: Leishmania donovani
Procedure: Briefly, promastigotes were cultivated at 25° C. in Schneiders medium supplemented with 20% inactivated fetal calf serum and 100 μg/mL of gentamicin. Cells were maintained in log phase by seeding at 1×10^6 /mL with subculturing when cultured densities approached 4×10^7 /mL before reaching their maximal density. For the assay, early log phase promastigotes were counted on a hemacytometer and resuspended at a concentration of 1-2×10^6 cell/mL in assay media (Schneiders medium plus 10% fetal bovine serum). Ten-fold serial dilutions of each test compound were prepared as described above and added to 180 μL of the parasite suspension. After incubation for 24 hours at 25° C., methyl-^3 H-thymidine was added to each sample for a final concentration of 1-2 μCi per well. Each sample was then incubated for an additional 18 hours prior to harvesting. After this incubation time, each sample was aspirated onto a filter mat, washed thoroughly with deionized water, dried and then counted in a scintillation counter with scintillation cocktail.

[3] = tested on: Candida albicans (clinical isolate); assay: Anti-Candida activity, minimum inhibitory concentration by visual inspection; assay type: cell-based; details: 15-18 hour incubation, 35° C., read-out: MIC against Candida albicans
Procedure: The minimum inhibitory concentration (MIC) of formula X1 compounds against a clinical isolate of Candida albicans was determined using the following method. […] The determination of this concentration is made by visual inspection; there is no visible growth in a tube containing the MIC of the formula X1 compound whereas visible growth is present in tubes containing sub-MIC concentrations of the compound.
Candida albicans was grown to midlog-phase in Luria-Bertani broth (10 grams Bacto-tryptone, 5 grams Bacto-yeast extract and 10 grams NaCl per liter) and then inoculated into sterile test tubes containing LB broth to an initial density of 10^3 /ml. The formula X1 compound to be tested is dissolved in dimethylsulfoxide (DMSO) at a concentration of 10 mM and added to each tube at serial dilutions (1 μM, 10 μM, 25 μM, 50 μM, 100 μM and 0 μM). The tubes are incubated at 35° C. for 15-18 hours and then visually inspected.

Leishmania donovani [4] = details: reported by Grogl et al. (1992); cited from earlier work
[5] = Table 1, D6 strain, 72 h, read-out: IC50, μM vs. Plasmodium
[6] = D6 strain, 72 h, read-out: anti-malarial activity IC50
[7] = Table 2, read-out: IC50, mg/ml vs. Leishmania
[8] = promastigotes, read-out: anti-leishmanial activity IC50
[9] = D6, 72 h, read-out: IC50, μM vs. Plasmodium

IC50 [1, 5] [µM]	SMILES	IC50 [1, 6] [µM]	IC50 (Leishmania donovani [2]; [7]) [mg/mL]	also measured
25 to 50	O=c1c2cc(O)c(O)c(O)c2oc2cc(O)c(O)c(O)c12 [1,2,3,5,6,7-Hexahydroxyxanthone, 1,2,3,5,6,7-Hexahydroxy-xanthone]			
1	O=c1c2cc(O)c(O)c(O)c2oc2cc(O)cc(O)c12 [1,3,5,6,7-pentahydroxyxanthone, 1,3,5,6,7-pentahydroxy-xanthone]			
> 100	O=c1c2ccccc2oc2cc(O)cc(O)c12 [1,3-dihydroxyxanthone, 1,3-dihydroxyxanthone]			
> 100	COc1cc2c(=O)c3ccc(OC)c(OC)c3oc2c(OC)c1OC [2,3,4,5,6-pentamethoxyxanthone]	> 100		anti-malarial potency relative to 2,3,4,5,6-pentahydroxyxanthone [1]: essentially eliminated the anti-malarial activity
10	O=c1c2ccc(O)c(O)c2oc2c(O)c(O)ccc12 [3,4,5,6-Tetrahdroxyxanthone, 3,4,5,6-Tetrahdroxy-xanthone]			
	CCN(CC)CCCC(C)Nc1ccnc2cc(Cl)ccc12 (stereo not drawn) [Chloroquine, reference compound]			IC50 ([1]; D6, 72 h, read-out: anti-malarial activity IC50): ~0.02 µM
50	O=c1c2cc(O)c(O)cc2oc2cc(O)c([C@@H]3O[C@H](CO)[C@@H](O)[C@H](O)[C@H]3O)c(O)c12 [Mangiferin, reference compound]		> 0.05	
	COc1c(O)cc2oc3cc(O)c(CC=C(C)C)c(O)c3c(=O)c2c1CC=C(C)C [Mangostin, reference compound]		0.00041	IC50 [1, 9]: 5 µM; IC50 (Leishmania donovani [2]; read-out: anti-leishmanial activity IC50): 0.00041 mg/mL; IC50 (Leishmania donovani [2]; [8]): 1000 nM
	O.O.O.O.O.O.O.O.O.O=C([O-])[C@@H]1[O][Sb](=[O])([O][Sb]2(=[O])[O][C@H]([C@H](O)CO)[C@H](O)[C@H](C(=O)[O-])[O]2)[O][C@H]([C@H](O)CO)[C@@H]1O.[Na+].[Na+].[Na+] (stereo partly drawn) [Pentostam]			IC50 values of commonly used anti-leishmanial drugs (Leishmania donovani [4]): 100 to 2000 µg/mL
	O=c1c2ccccc2oc2ccccc12 [Xanthone]			IC50 [1, 9]: 10 µM

SMILES	IC50 [1, 5] [µM]	IC50 [1, 6] [µM]	IC50 (Leishmania donovani [2]; [7]) [mg/mL]	also measured
O=c1c2cc(O)c(O)c(O)c2oc2c(O)c(O)c(O)cc12 [2,3,4,5,6,7-hexahydroxyxanthone]	0.075	0.075	0.0015	IC50 (Leishmania donovani [2]; [8]): ~5000 nM; MIC [3]: ~37.5 µM (≈ 11 µg/mL)
CC(=O)Oc1cc2c(=O)c3ccc(OC(C)=O)c(OC(C)=O)c3oc2c(OC(C)=O)c1OC(C)=O [2,3,4,5,6-pentaacetoxyxanthone]	0.075	~0.075		anti-malarial potency relative to 2,3,4,5,6-pentahydroxyxanthone [1]: several times more potent
O=c1c2ccc(O)c(O)c2oc2c(O)c(O)c(O)cc12 [2,3,4,5,6-pentahydroxyxanthone]	0.4 to 0.5	0.4 to 0.5	0.0015	IC50 (Leishmania donovani [2]; [8]): ~5000 nM; anti-leishmanial activity IC50 (Leishmania donovani [2]; promastigotes, value in mg/ml): ~1 µg/mL; MIC [3]: ~37.5 µM (≈ 10.4 µg/mL)
